The data set in a line: Peptide solubility measurement (micro‐BCA after centrifugation). In kind it is physicochemical. To be noted: 200 μM peptide in 10 mM PBS (140 mM KCl), centrifuged 18,000 g 30 min, supernatant by micro‐BCA. How it is done:
Dry peptides were dissolved in HFIP to prepare the stock solutions. The concentrations of the stock solutions were measured by using freeze dried aliquots of the stock solutions with the micro‐BCA assay. Based on the stock solution concentrations, aliquots were prepared and lyophilized. The dry peptides were reconstructed in 10 mM phosphate buffer saline (140 mM KCl), pH 7.4 at a final peptide concentration of 200 μM. Immediately after reconstitution 10 μl of the sample was removed and the soluble peptide concentration was measured using the micro‐BCA assay. […] After 5 days, a 450 μl portion from each sample were removed and centrifuged at 18,000 g for 30 min (25°C). A 100 μl portion of the centrifuged supernatant was subjected to the micro‐BCA assay to calculate the amount of soluble peptide left after 5 days.

In the case of `CC[C@H](C)[C@H](NC(=O)[C@H](C)NC(=O)[C@H](CC(C)C)NC(=O)[C@H](Cc1ccccc1)NC(=O)[C@H](CC(N)=O)NC(=O)[C@H](CC(N)=O)NC(=O)[C@H](CO)NC(=O)[C@H](CO)NC(=O)[C@H](Cc1c[nH]cn1)NC(=O)[C@@H](NC(=O)[C@H](CC(C)C)NC(=O)[C@H](Cc1ccccc1)NC(=O)[C@H](CC(N)=O)NC(=O)[C@H](C)NC(=O)[C@H](CC(C)C)NC(=O)[C@H](CCCNC(=N)N)NC(=O)[C@H](CCC(N)=O)NC(=O)[C@@H](NC(=O)[C@H](C)NC(=O)[C@@H]1CSSC[C@H](NC(=O)[C@@H](N)CCCCN)C(=O)N[C@@H](CC(N)=O)C(=O)N[C@@H]([C@@H](C)O)C(=O)N[C@@H](C)C(=O)N[C@@H]([C@@H](C)O)C(=O)N1)[C@@H](C)O)C(C)C)C(=O)N[C@@H](CC(C)C)C(=O)N[C@@H](CO)C(=O)N[C@@H](CO)C(=O)N[C@H](C(=O)N[C@@H](CC(N)=O)C(=O)N[C@H](C(=O)NCC(=O)N[C@@H](CO)C(=O)N[C@@H](CC(N)=O)C(=O)N[C@H](C(=O)N[C@@H](Cc1ccc(O)cc1)C(N)=O)[C@@H](C)O)C(C)C)[C@@H](C)O` [G24L‐hIAPP], where the note is “pH 7.4, 25°C, 5 days, differences not significant (p > 0.05)”, the “Apparent solubility compared to wild type hIAPP” value is given as “Slightly higher concentrations”.

As to `CC[C@H](C)[C@H](NC(=O)[C@H](C)NC(=O)[C@@H]1CCCN1C(=O)[C@H](Cc1ccccc1)NC(=O)[C@H](CC(N)=O)NC(=O)[C@H](CC(N)=O)NC(=O)[C@H](CO)NC(=O)[C@H](CO)NC(=O)[C@H](Cc1c[nH]cn1)NC(=O)[C@@H](NC(=O)[C@H](CC(C)C)NC(=O)[C@H](Cc1ccccc1)NC(=O)[C@H](CC(N)=O)NC(=O)[C@H](C)NC(=O)[C@H](CC(C)C)NC(=O)[C@H](CCCNC(=N)N)NC(=O)[C@H](CCC(N)=O)NC(=O)[C@@H](NC(=O)[C@H](C)NC(=O)[C@@H]1CSSC[C@H](NC(=O)[C@@H](N)CCCCN)C(=O)N[C@@H](CC(N)=O)C(=O)N[C@@H]([C@@H](C)O)C(=O)N[C@@H](C)C(=O)N[C@@H]([C@@H](C)O)C(=O)N1)[C@@H](C)O)C(C)C)C(=O)N[C@@H](CC(C)C)C(=O)N[C@@H](CO)C(=O)N[C@@H](CO)C(=O)N[C@H](C(=O)N[C@@H](CC(N)=O)C(=O)N[C@H](C(=O)NCC(=O)N[C@@H](CO)C(=O)N[C@@H](CC(N)=O)C(=O)N[C@H](C(=O)N[C@@H](Cc1ccc(O)cc1)C(N)=O)[C@@H](C)O)C(C)C)[C@@H](C)O` [G24P‐hIAPP], the “Apparent solubility: amount of peptide remaining in the solution” value (pH 7.4, stood 7 days at room temperature) is reported as “greater than 50 μM”.
